The values that follow come from patent US9974768B2, “Pharmaceutical for improving dysphagia” (MEIJI SEIKA PHARMA CO., LTD., priority 2013, dated 2018).

Data set [1] relates to guinea pig dysphagia model induced by repeated administrations of haloperidol. Nature of the data set: Swallowing reflex improvement in guinea pig dysphagia model induced by repeated administrations of haloperidol (water drinking frequency). The data set is classed as in vivo.
In data set [2] the test system is normal guinea pig. The data set can be described thus: Swallowing reflex in normal guinea pig after local pharyngeal administration of substance P receptor antagonist FK888. The data set is classed as in vivo. As to the method:
FIG. 4 is a graph showing the results of a study of decrease in a swallowing reflex in a normal guinea pig by local administration to a pharyngeal site of a substance P receptor antagonist, and an improving effect by a prior local administration to the pharyngeal site of a captopril aqueous solution in Example 3.
FK888 (10 μM, 50 μL/guinea pig), which is a substance P receptor antagonist, was administered locally with a spray device to a pharyngeal site of a guinea pig, and water drinking reflection frequency was measured in the same way as in Experiment 1.

Data set [3] has as its system Hartley guinea pigs. The data set can be described thus: Swallowing reflex decrease by repeated administrations of haloperidol (water drinking frequency). It is filed as in vivo, guinea pig. As to conditions: haloperidol 1 mg/kg s.c. twice per day for 7 days, compared to physiological saline group. Here is the method:
To 6 week-old female Hartley guinea pigs (330 to 390 g) habituated for 1 week after receipt, a physiological saline solution, or a haloperidol solution was injected subcutaneously in a dosage of 1 mg/kg approx. every 12 hours twice per day for 7 days. Thereafter, a guinea pig was fixed at extremities, and 500 μL of distilled water was injected over 5 sec through a device to a part just before the pharynx, and the total frequency of swallowing until 10 sec and 30 sec from the injection was measured based on a muscle movement in a pharyngeal site. Thereafter a physiological saline solution, or a haloperidol solution was injected again (1 mg/kg).
The measurements were repeated totally 4 times at intervals of 1 min. […] Based on the result, the guinea pig was used as a dysphagia model induced by repeated administrations of haloperidol in the following experiments for evaluation of drug efficacy.

The subject of data set [4] is blood pressure increase induced by angiotensin I. The data set can be described thus: Blood pressure increase induced by intravenous angiotensin I in normal rat. As to conditions: angiotensin I 300 ng/kg i.v. after 1 hour.
Method: The respective dose of a captopril, or lisinopril aqueous solution was administered orally and the blood pressures were measured after 1 hour. Thereafter, angiotensin I was administered intravenously (300 ng/kg) to induce blood pressure increase and a change in the mean blood pressure was measured.

“Also recorded” adds a separate entry of the source. Bounds are passed on as bounds.

Turning to `C[C@H](CS)C(=O)N1CCC[C@H]1C(=O)O` [captopril], the water drinking frequency entry in data set [1] (100 μL of 50 μM aqueous solution, single spray to pharyngeal mucosa, 30 min after administration) is reported as “significant increase; also recorded: exhibited an improving effect on dysphagia”; in data set [1] (100 μL of 50 mM aqueous solution, single spray to pharyngeal mucosa, 30 min after administration), “significant increase; also recorded: exhibited an improving effect on dysphagia”. Further, the “water drinking frequency (dysphagia improving effect)” value in data set [1] (oral (intragastric) administration, same dose as 100 μL of 50 μM solution, 30 min after administration) was “did not exert an influence”; in data set [1] (oral (intragastric) administration, same dose as 100 μL of 50 mM solution, 30 min after administration) it was “did not exert an influence”. The “decrease in swallowing reflex by FK888 administration” value in data set [2] (captopril aqueous solution sprayed to pharyngeal site in a single dose 30 min before FK888) is reported as “suppressed”.
In the case of `CN(Cc1ccccc1)C(=O)[C@H](Cc1ccc2ccccc2c1)NC(=O)[C@@H]1C[C@@H](O)CN1C(=O)c1cn(C)c2ccccc12` [FK888], the “increase in water drinking frequency by lisinopril (50 nM, 100 μL)” value in data set [1] (FK888 10 nM, 100 μL sprayed to pharyngeal mucosa 15 min after lisinopril administration) is reported as “almost completely suppressed”. Moreover, the “influence on swallowing reflex” value in data set [2] (FK888 10 nM, 100 μL, local, stated as lower limit) was “not influencing swallowing reflex”. For the same compound, the “swallowing reflex (water drinking reflection frequency)” value in data set [2] (FK888 10 μM, 50 μL/guinea pig, single local spray to pharyngeal site) is listed as “decrease in swallowing reflex”.
For the compound `O=C(CCCN1CCC(O)(c2ccc(Cl)cc2)CC1)c1ccc(F)cc1` [haloperidol], the water drinking frequency entry in data set [3] is reported as “significantly decreased”.
Consider `NCCCC[C@H](N[C@@H](CCc1ccccc1)C(=O)O)C(=O)N1CCC[C@H]1C(=O)O` [lisinopril], for which, in data set [1] (100 μL aqueous solution, single spray to pharyngeal mucosa), the “dose (solution concentration) with significant increase in water drinking frequency” value is listed as at least 50 nM. In addition, the water drinking frequency result in data set [1] (100 μL of 0.5 nM to 500 μM aqueous solution, single spray to pharyngeal mucosa) is listed as “dose-dependent increase”; in data set [1] (100 μL of 50 nM aqueous solution, single spray to pharyngeal mucosa, 30 min after administration) it was “increase in water drinking frequency”. Moreover, the “dose per administration giving dysphagia improving effect in a human” value in data set [1] (converted for a human having an average body weight of 60 kg) is given as at least 300 ng. Moreover, the “dysphagia improvement effective dose based on body weight” value in data set [1] (converted from effective dose obtained in Examples) is 0.005 µg/kg. Further, the “water drinking frequency (dysphagia improving effect)” value in data set [1] (local administration of 100 μL of 50 μM aqueous solution to pharyngeal mucosa, 2 hours after administration) is “exhibited an improving effect on dysphagia”; in data set [1] (oral (intragastric) administration of same dose as local (100 μL of 50 mM solution), 2 hours after administration) it was “exerted no influence; also recorded: no dysphagia improving effect was observed”. Moreover, the “vasopressor reaction by administration of angiotensin I (change in mean blood pressure)” value in data set [4] (100 μL of 5 μM aqueous solution orally) was “had no influence”; in data set [4] (100 μL of 5 mM aqueous solution orally), “suppressed a vasopressor reaction”.
